The numbers were not newly measured in patent US20100280071A1, “BENZIMIDAZOLES WHICH HAVE ACTIVITY AT M1 RECEPTOR AND THEIR USES IN MEDICINE” (priority 2006, published 2010), which cites them from elsewhere.

The subject of series [1] is rats.
In series [2] the test system is mice.
Series [3] relates to unilateral 6-OH-DA lesioned rats.
Series [4] concerns monkeys.
For series [5], the system named is A10 and A9 dopamine cells. To be noted: A10 versus A9 cells.
For series [6] the following is noted: in vivo.
The subject of series [7] is c-fos expression. To be noted: prefrontal cortex, nucleus accumbens, striatum; rats.
Series [8] deals with Alzheimer's patients.

In the case of `CCCCCCOc1nsnc1C1=CCCN(C)C1` [xanomeline], the “effect on amphetamine induced locomotion” value in series [1] is reported as “reverses”. The “effect on apomorphine induced climbing” value in series [2] is reported as “reverses”. Besides, the “effect on dopamine agonist driven turning” value in series [3] is on record as “reverses”. In series [4], the EPS liability entry is “without EPS liability” and the “effect on amphetamine-induced motor unrest” value is “reverses”. Also, the dopamine cell firing entry in series [5] is “inhibit A10, but not A9”. Moreover, in series [6], the conditioned avoidance result is recorded as “inhibit”. The c-fos expression entry in series [7] was “induces c-fos expression in prefrontal cortex and nucleus accumbens, but not in striatum”. In series [8] (Alzheimer's patients), the “psychotic symptoms such as suspiciousness, hallucinations and delusions” value was “reduce psychotic symptoms”. Moreover, the side effects result in series [8] (attributed to relatively non-selective nature of the compound) was “dose-limiting peripheral cholinergic side effects”.
